Among the data in the SangsterLogP compilation are logD values, retold here.

This data set is described as follows: method code SF-HPLC, from DOI: 10.1002/jps.2600750109, PMID: 3958903. To be noted: pH 7.4.
A word on the logD: it is the decadic logarithm of the distribution of all forms, ionised or not, between an organic phase and buffer at a given pH. Higher therefore signals higher lipophilicity. On to `CCCCCCOC(=O)C(CC)C(CO)Cc1cncn1C` (stereo unspecified), for which the logD was 2.71. As for `CC[C@H](C(=O)OCc1ccc(Cl)cc1)[C@H](CO)Cc1cncn1C`, the figure is 2.69. In the case of `CC[C@H](C(=O)OCc1ccccc1C)[C@H](CO)Cc1cncn1C` it was 2.42; in that of `CCOC(=O)CC(CO)C(CC)c1cncn1C` (stereo unspecified), 0.73; in that of `CC(C)(C)C(=O)OCOc1ccccc1C(=O)NCN1CCOCC1`, 1.81. `CCC(C(=O)OCc1ccccc1)C(CO)Cc1cncn1C` (stereo unspecified) came in with a logD of 1.97.

`O=C(NCN1CCOCC1)c1ccccc1O` had a logD of 1.27. With `CCC(C(=O)OCCc1ccccc1)C(CO)Cc1cncn1C` (stereo unspecified), the logD came out at 2.31. For the molecule `CCC(C(=O)OC(C)c1ccccc1)C(CO)Cc1cncn1C` (stereo unspecified), the logD stood at 2.23. The molecule `CC[C@H](C(=O)OCc1ccc(C)cc1)[C@H](CO)Cc1cncn1C` registered a logD of 2.46. In the case of `CCCCOC(=O)[C@@H](CC)[C@H](CO)Cc1cncn1C`, the logD was determined as 1.73.
